# From ChEMBL document CHEMBL1201862, “PubChem BioAssay data set” (2004)
#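 A five-concentration, 48-hour dose response in 96-well plates underlies each endpoint, interpolated linearly between surrounding concentrations. GI50 is the concentration that inhibits growth by half.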 Calls of active or inactive are those of the source. Rule as the data show it: active = GI50 up to about 1.1 µM and inactive = higher.
# Columns and labels:
# Test in all cases: growth of human tumour cells (NCI), 48 h
# HL-60 = system: HL-60
# CAKI-1 = system: CAKI-1
# OVCAR-3 = system: OVCAR-3
# ACHN = system: ACHN
# OVCAR-8 = system: OVCAR-8
# PC-3 = system: PC-3
# NCI-H226 = system: NCI-H226
# MDA-N = system: MDA-N
# SR = system: SR
# Hs-578T = system: Hs-578T
# SK-MEL-28 = system: SK-MEL-28
# A498 = system: A498
# SNB-75 = system: SNB-75
# M14 = system: M14
# SK-OV-3 = system: SK-OV-3
# SF-295 = system: SF-295
# T47D = system: T47D
# UACC-257 = system: UACC-257
# Malme-3M = system: Malme-3M
# NCI-H23 = system: NCI-H23
# DU-145 = system: DU-145
# MDA-MB-435 = system: MDA-MB-435
# K562 = system: K562
# OVCAR-4 = system: OVCAR-4
# EKVX = system: EKVX
# A549 = system: A549
# SK-MEL-2 = system: SK-MEL-2
# UO-31 = system: UO-31
# NCI/ADR-RES = system: NCI/ADR-RES
# SK-MEL-5 = system: SK-MEL-5
# HCC 2998 = system: HCC 2998
# HCT-116 = system: HCT-116
# SF-539 = system: SF-539
# LOX IMVI = system: LOX IMVI
# CCRF-CEM = system: CCRF-CEM
# MOLT-4 = system: MOLT-4
# TK-10 = system: TK-10
# UACC-62 = system: UACC-62
# RXF 393 = system: RXF 393
# HOP-62 = system: HOP-62
# MDA-MB-231 = system: MDA-MB-231
# OVCAR-5 = system: OVCAR-5
# NCI-H460 = system: NCI-H460
# BT-549 = system: BT-549
# RPMI-8226 = system: RPMI-8226
# NCI-H522 = system: NCI-H522
# SN12C = system: SN12C
# IGROV-1 = system: IGROV-1
# MCF7 = system: MCF7
# HCT-15 = system: HCT-15
# SF-268 = system: SF-268
# HOP-92 = system: HOP-92
# COLO 205 = system: COLO 205
# KM12 = system: KM12
# HT-29 = system: HT-29
# SNB-19 = system: SNB-19
# 786-0 = system: 786-0
# SW-620 = system: SW-620
# U-251 = system: U-251
structure (smiles),measurement,setting,value
O=C1CSC(c2cc3cc(Br)ccc3nc2Cl)N1c1ccc(Cl)cc1 (stereo unspecified),GI50,HL-60,20.7 µM (inactive)
same,GI50,CAKI-1,18.5 µM (inactive)
same,GI50,OVCAR-3,16.7 µM (inactive)
same,GI50,ACHN,13.5 µM (inactive)
same,GI50,OVCAR-8,44.1 µM (inactive)
same,GI50,PC-3,41.2 µM (inactive)
same,GI50,NCI-H226,39.2 µM (inactive)
same,GI50,MDA-N,27.4 µM (inactive)
same,GI50,SR,15.1 µM (inactive)
same,GI50,Hs-578T,35.9 µM (inactive)
same,GI50,SK-MEL-28,33.7 µM (inactive)
same,GI50,A498,36 µM (inactive)
same,GI50,SNB-75,52.2 µM (inactive)
same,GI50,M14,21.1 µM (inactive)
same,GI50,SK-OV-3,43.3 µM (inactive)
same,GI50,SF-295,12.9 µM (inactive)
same,GI50,T47D,21 µM (inactive)
same,GI50,UACC-257,14.8 µM (inactive)
same,GI50,Malme-3M,25.7 µM (inactive)
same,GI50,NCI-H23,31.3 µM (inactive)
same,GI50,DU-145,34.4 µM (inactive)
same,GI50,MDA-MB-435,16.8 µM (inactive)
same,GI50,K562,7.33 µM (inactive)
same,GI50,OVCAR-4,23.2 µM (inactive)
same,GI50,EKVX,27.2 µM (inactive)
same,GI50,A549,28.1 µM (inactive)
same,GI50,SK-MEL-2,14.7 µM (inactive)
same,GI50,UO-31,32.3 µM (inactive)
same,GI50,NCI/ADR-RES,20.5 µM (inactive)
same,GI50,SK-MEL-5,14 µM (inactive)
same,GI50,HCC 2998,19.2 µM (inactive)
same,GI50,HCT-116,23.6 µM (inactive)
same,GI50,SF-539,17.7 µM (inactive)
same,GI50,LOX IMVI,16.1 µM (inactive)
same,GI50,CCRF-CEM,7.71 µM (inactive)
same,GI50,MOLT-4,17.4 µM (inactive)
same,GI50,TK-10,29.6 µM (inactive)
same,GI50,UACC-62,5.87 µM (inactive)
same,GI50,RXF 393,20.8 µM (inactive)
same,GI50,HOP-62,25.8 µM (inactive)
same,GI50,MDA-MB-231,33.1 µM (inactive)
same,GI50,OVCAR-5,94.8 µM (inactive)
same,GI50,NCI-H460,16.1 µM (inactive)
same,GI50,BT-549,26.8 µM (inactive)
same,GI50,RPMI-8226,25.4 µM (inactive)
same,GI50,NCI-H522,17.8 µM (inactive)
same,GI50,SN12C,20.2 µM (inactive)
same,GI50,IGROV-1,16.8 µM (inactive)
same,GI50,MCF7,17.9 µM (inactive)
same,GI50,HCT-15,16.8 µM
same,GI50,SF-268,22.2 µM (inactive)
same,GI50,HOP-92,37.2 µM (inactive)
same,GI50,COLO 205,17.9 µM (inactive)
same,GI50,KM12,13 µM (inactive)
same,GI50,HT-29,32.9 µM (inactive)
same,GI50,SNB-19,42.7 µM (inactive)
same,GI50,786-0,35.6 µM (inactive)
same,GI50,SW-620,34.3 µM (inactive)
O[C@H]1[C@H]2[C@H](O)C[C@H](CCOCc3ccccc3)CN2C[C@H]1O,GI50,HL-60,> 100 µM (inactive)
same,GI50,CAKI-1,> 100 µM (inactive)
same,GI50,OVCAR-3,> 100 µM (inactive)
same,GI50,ACHN,> 100 µM (inactive)
same,GI50,OVCAR-8,> 100 µM (inactive)
same,GI50,PC-3,> 100 µM (inactive)
same,GI50,NCI-H226,> 100 µM (inactive)
same,GI50,MDA-N,> 100 µM (inactive)
same,GI50,SR,> 100 µM (inactive)
same,GI50,Hs-578T,> 100 µM (inactive)
same,GI50,SK-MEL-28,> 100 µM (inactive)
same,GI50,A498,> 100 µM (inactive)
same,GI50,SNB-75,45.4 µM (inactive)
same,GI50,M14,> 100 µM (inactive)
same,GI50,SK-OV-3,> 100 µM (inactive)
same,GI50,SF-295,> 100 µM (inactive)
same,GI50,T47D,> 100 µM (inactive)
same,GI50,UACC-257,> 100 µM (inactive)
same,GI50,Malme-3M,> 100 µM (inactive)
same,GI50,NCI-H23,> 100 µM (inactive)
same,GI50,DU-145,> 100 µM (inactive)
same,GI50,MDA-MB-435,> 100 µM (inactive)
same,GI50,K562,> 100 µM (inactive)
same,GI50,OVCAR-4,> 100 µM (inactive)
same,GI50,EKVX,> 100 µM (inactive)
same,GI50,A549,> 100 µM (inactive)
same,GI50,SK-MEL-2,> 100 µM (inactive)
same,GI50,UO-31,> 100 µM (inactive)
same,GI50,NCI/ADR-RES,> 100 µM (inactive)
same,GI50,SK-MEL-5,> 100 µM (inactive)
same,GI50,HCC 2998,> 100 µM (inactive)
same,GI50,HCT-116,> 100 µM (inactive)
same,GI50,SF-539,> 100 µM (inactive)
same,GI50,LOX IMVI,> 100 µM (inactive)
same,GI50,CCRF-CEM,> 100 µM (inactive)
same,GI50,MOLT-4,> 100 µM (inactive)
same,GI50,UACC-62,> 100 µM (inactive)
same,GI50,U-251,> 100 µM (inactive)
same,GI50,RXF 393,> 100 µM (inactive)
same,GI50,MDA-MB-231,> 100 µM (inactive)
same,GI50,OVCAR-5,> 100 µM (inactive)
same,GI50,NCI-H460,> 100 µM (inactive)
same,GI50,BT-549,> 100 µM (inactive)
same,GI50,RPMI-8226,> 100 µM (inactive)
same,GI50,NCI-H522,> 100 µM (inactive)
same,GI50,SN12C,> 100 µM (inactive)
same,GI50,IGROV-1,> 100 µM (inactive)
same,GI50,MCF7,> 100 µM (inactive)
same,GI50,HCT-15,> 100 µM
same,GI50,SF-268,> 100 µM (inactive)
same,GI50,HOP-92,> 100 µM (inactive)
same,GI50,COLO 205,> 100 µM (inactive)
same,GI50,KM12,> 100 µM (inactive)
same,GI50,HT-29,> 100 µM (inactive)
same,GI50,SNB-19,> 100 µM (inactive)
same,GI50,786-0,> 100 µM (inactive)
same,GI50,SW-620,> 100 µM (inactive)
CCC(=O)O[C@H]1CC[C@H]2[C@@H]3CCC4=C/C(=N/OC(=O)c5cccc6cc7ccccc7nc56)CC[C@]4(C)[C@H]3CC[C@]12C,GI50,HL-60,44.3 µM (inactive)
same,GI50,CAKI-1,> 100 µM (inactive)
same,GI50,OVCAR-3,29 µM (inactive)
same,GI50,ACHN,> 100 µM (inactive)
same,GI50,OVCAR-8,42.3 µM (inactive)
same,GI50,PC-3,29 µM (inactive)
same,GI50,NCI-H226,> 100 µM (inactive)
same,GI50,MDA-N,51.5 µM (inactive)
same,GI50,SR,67.9 µM (inactive)
same,GI50,Hs-578T,39.6 µM (inactive)
same,GI50,SK-MEL-28,90.2 µM (inactive)
same,GI50,A498,> 100 µM (inactive)
same,GI50,SNB-75,83.8 µM (inactive)
same,GI50,M14,64.1 µM (inactive)
same,GI50,SK-OV-3,> 100 µM (inactive)
same,GI50,T47D,21.9 µM (inactive)
same,GI50,UACC-257,63.4 µM (inactive)
same,GI50,Malme-3M,29.2 µM (inactive)
same,GI50,NCI-H23,52.8 µM (inactive)
same,GI50,DU-145,> 100 µM (inactive)
same,GI50,MDA-MB-435,38.8 µM (inactive)
same,GI50,K562,> 100 µM (inactive)
same,GI50,OVCAR-4,76 µM (inactive)
same,GI50,EKVX,53.6 µM (inactive)
same,GI50,A549,71.1 µM (inactive)
same,GI50,SK-MEL-2,55.2 µM (inactive)
same,GI50,NCI/ADR-RES,60.4 µM (inactive)
same,GI50,SK-MEL-5,15.2 µM (inactive)
same,GI50,HCC 2998,> 100 µM (inactive)
same,GI50,HCT-116,36.1 µM (inactive)
same,GI50,SF-539,43.4 µM (inactive)
same,GI50,LOX IMVI,33.4 µM (inactive)
same,GI50,CCRF-CEM,41.2 µM (inactive)
same,GI50,MOLT-4,> 100 µM (inactive)
same,GI50,UACC-62,27.8 µM (inactive)
same,GI50,U-251,51.9 µM (inactive)
same,GI50,RXF 393,> 100 µM (inactive)
same,GI50,HOP-62,50.5 µM (inactive)
same,GI50,MDA-MB-231,> 100 µM (inactive)
same,GI50,OVCAR-5,> 100 µM (inactive)
same,GI50,NCI-H460,39.1 µM (inactive)
same,GI50,BT-549,63.8 µM (inactive)
same,GI50,RPMI-8226,50.4 µM (inactive)
same,GI50,NCI-H522,41.4 µM (inactive)
same,GI50,SN12C,> 100 µM (inactive)
same,GI50,IGROV-1,11.5 µM (inactive)
same,GI50,MCF7,42.2 µM (inactive)
same,GI50,HCT-15,55.7 µM
same,GI50,SF-268,> 100 µM (inactive)
same,GI50,HOP-92,> 100 µM (inactive)
same,GI50,COLO 205,41 µM (inactive)
same,GI50,KM12,40.7 µM (inactive)
same,GI50,HT-29,42.9 µM (inactive)
same,GI50,SNB-19,70.1 µM (inactive)
same,GI50,786-0,> 100 µM (inactive)
same,GI50,SW-620,65.8 µM (inactive)
